Results on 20 molecules are retold here after ChEMBL document CHEMBL3352244, “Synthesis and biological activity of 5-(4-methoxyphenyl)-oxazole derivatives” (Bioorg Med Chem Lett, 2015).

pEC50: −log10 of the molar value. Converted amounts (≈) assume the structure as drawn. A value given as a limit tells only on which side of the number the result lay.

Experiment [1] has as its system Caenorhabditis elegans. The experiment is described as follows: Growth inhibition of adult Caenorhabditis elegans measured on day 3 by microscopy. It counts as functional. Particulars: 72 h.
Experiment [2] concerns Caenorhabditis elegans. Description: Inhibition of hatch of eggs newly spawned by adult Caenorhabditis elegans measured on day 3. It counts as functional. Particulars: 72 h.
Experiment [3] concerns Caenorhabditis elegans. The experiment is described as follows: Inhibition of hatch of eggs newly spawned by adult Caenorhabditis elegans at 17 uM measured on day 3. The experiment is classed as functional. Particulars: 72 h.
The subject of another experiment is Escherichia coli. The experiment is described as follows: Antimicrobial activity against Escherichia coli incubated at 37 degC for 24 hrs. The experiment is classed as functional, organism-based.
The next experiment concerns Staphylococcus aureus. The experiment is described as follows: Antimicrobial activity against Staphylococcus aureus incubated at 37 degC for 24 hrs. It counts as functional, organism-based.
The test system of another experiment is Aspergillus fumigatus. Description: Antimicrobial activity against Aspergillus fumigatus incubated at 28 degC for 24 hrs. It counts as functional, organism-based.
For a further experiment, the system named is Candida albicans. Description: Antimicrobial activity against Candida albicans incubated at 28 degC for 24 hrs. The experiment is classed as functional, organism-based.
For the next experiment, the system named is Pyricularia oryzae. The experiment is described as follows: Antimicrobial activity against Magnaporthe oryzae incubated at 28 degC for 48 hrs. It counts as functional, organism-based.
The subject of the next experiment is Plasmodium falciparum. Description: Antimalarial activity against Plasmodium falciparum K1 after 72 hrs by parasite LDH assay. The experiment is classed as functional, organism-based. Particulars: K1, 72 h.
For a further experiment, the system named is HeLa. Description: Cytotoxic activity against human HeLa cells after 48 hrs by WST8 assay. The experiment is classed as functional, cell-based. (In general: Tetrazolium assays rely on reduction of a dye to a coloured formazan, in cell work by metabolically active cells.)
Experiment [4] is described as follows: Cytotoxic activity against human HL60 cells after 48 hrs by WST8 assay. It counts as functional, cell-based. Particulars: HL-60, 48 h.
In a further experiment the target is T1, D-amino-acid oxidase (Caenorhabditis elegans, UniProt Q95XG9).
T1 sequence (Q95XG9 whole entry): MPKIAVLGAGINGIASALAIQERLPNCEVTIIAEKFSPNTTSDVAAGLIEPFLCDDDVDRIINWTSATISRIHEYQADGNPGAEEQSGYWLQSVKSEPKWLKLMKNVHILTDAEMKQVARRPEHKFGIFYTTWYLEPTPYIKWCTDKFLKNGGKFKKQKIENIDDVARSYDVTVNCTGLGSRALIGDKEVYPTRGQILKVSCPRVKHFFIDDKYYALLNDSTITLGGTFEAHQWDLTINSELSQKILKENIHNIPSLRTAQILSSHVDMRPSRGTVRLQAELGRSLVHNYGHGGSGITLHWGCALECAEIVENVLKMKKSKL
The experiment is described as follows: Inhibition of Caenorhabditis elegans DAO incubated for 10 mins.

For the next experiment, the target named is T2, D-aspartate oxidase 3 (Caenorhabditis elegans, UniProt O01739).
T2 sequence (O01739 whole entry): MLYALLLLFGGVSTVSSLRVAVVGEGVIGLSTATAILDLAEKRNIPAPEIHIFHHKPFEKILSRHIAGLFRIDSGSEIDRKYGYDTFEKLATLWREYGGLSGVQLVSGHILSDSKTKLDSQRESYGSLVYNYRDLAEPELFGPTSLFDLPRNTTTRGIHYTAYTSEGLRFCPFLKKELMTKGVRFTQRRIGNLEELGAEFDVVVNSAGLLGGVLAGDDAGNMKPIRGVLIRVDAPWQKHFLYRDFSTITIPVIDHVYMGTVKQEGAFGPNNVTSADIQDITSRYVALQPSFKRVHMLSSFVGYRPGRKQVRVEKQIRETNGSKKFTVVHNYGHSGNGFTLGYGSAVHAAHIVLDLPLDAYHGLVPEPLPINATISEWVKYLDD
Description: Inhibition of Caenorhabditis elegans DDO3 incubated for 10 mins.

For `Cc1ccc(-c2cnco2)cc1`, the MIC with Caenorhabditis elegans [1] and with Caenorhabditis elegans [2] was over 100 µM each time.
In the case of `COc1ccc(-c2cncs2)cc1`, the results for the MIC against Caenorhabditis elegans [1] and against Caenorhabditis elegans [2] were 50 µM (≈ 9.56 µg/mL) and over 100 µM, respectively.
For `CCc1ccc(-c2cnco2)cc1`, in that order: over 100 µM and over 100 µM.
With `COc1ccc(-c2cnco2)cc1C(=O)O`, the MIC in the experiment with Caenorhabditis elegans [1] and in the experiment with Caenorhabditis elegans [2] was over 100 µM throughout.
Consider `CC(=O)Oc1ccc(-c2cnco2)cc1`, for which the MIC in the experiment on Caenorhabditis elegans [1] and in the experiment on Caenorhabditis elegans [2] was over 100 µM in each case.
Take `COc1ccc(-c2ncco2)cc1`: the MIC (usually the least concentration at which growth counts as inhibited) against Caenorhabditis elegans [1] was 100 µM (≈ 17.5 µg/mL); with Caenorhabditis elegans [2], over 100 µM.
With `COC(=O)c1ccc(-c2cnco2)cc1`, the MIC against Caenorhabditis elegans [1] and in the experiment with Caenorhabditis elegans [2] was over 100 µM in each case.
Consider `COc1ccccc1-c1cnco1`, for which the minimum inhibitory concentration (MIC) against Caenorhabditis elegans [1] and against Caenorhabditis elegans [2] was over 100 µM in each case.
As for `COc1ccc(-c2cnc(-c3ccc(C(=O)O)cc3)o2)cc1`, the MIC in the experiment with Caenorhabditis elegans [1] and with Caenorhabditis elegans [2] was over 100 µM throughout.
Take `O=C(O)c1ccc(-c2cnco2)cc1`: the minimum inhibitory concentration (MIC) against Caenorhabditis elegans [1] and with Caenorhabditis elegans [2] was over 100 µM in each case.
Regarding `COc1ccc(-c2c[nH]cn2)cc1`, the MIC in the experiment on Caenorhabditis elegans [1] and in the experiment with Caenorhabditis elegans [2] was over 100 µM in each case.
As to `c1ccc(-c2cnco2)cc1`, the MIC in the experiment with Caenorhabditis elegans [1] and against Caenorhabditis elegans [2] was over 100 µM each time.
For the molecule `CCOC(=O)c1ccc(-c2ncc(-c3ccc(OC)cc3)o2)cc1`, the minimal inhibitory concentration (MIC) in the experiment with Caenorhabditis elegans [1] and in the experiment on Caenorhabditis elegans [2] was over 100 µM throughout.
In the case of `COC(=O)c1cc(-c2cnco2)ccc1OC`, the MIC against Caenorhabditis elegans [1] and in the experiment with Caenorhabditis elegans [2] was over 100 µM throughout.
Turning to `N#Cc1ccc(-c2cnco2)cc1`, the MIC is over 100 µM in the experiment on Caenorhabditis elegans [1] and 100 µM (≈ 17 µg/mL) against Caenorhabditis elegans [2].
Take `CN(C)c1ccc(-c2cnco2)cc1`: the MIC with Caenorhabditis elegans [1] was 50 µM (≈ 9.41 µg/mL); against Caenorhabditis elegans [2], over 100 µM.
`COc1ccc(-c2cnco2)cc1`: in the experiment with Caenorhabditis elegans [3], the inhibition (in general, the relative decrease from the control value, in per cent) at 17 µM came to 100%. Further, the MIC against Caenorhabditis elegans [1] turned out to be 34 µM (≈ 5.96 µg/mL); in the experiment on Caenorhabditis elegans [2], 17 µM (≈ 2.98 µg/mL). The pEC50 (commonly the EC50 on a negative log10 scale, so that one unit is a factor of ten) in the experiment with Escherichia coli was under 4.00; with Staphylococcus aureus, under 4.00; in the experiment with Aspergillus fumigatus, under 4.00; in the experiment on Candida albicans, under 4.00; with Pyricularia oryzae, 5.40; in the experiment on Plasmodium falciparum, under 4.00. Besides, the pEC50 is 4.52 with HeLa, under 4.00 in experiment [4], under 4.00 on D-amino-acid oxidase and under 4.00 on D-aspartate oxidase 3.
Turning to `COc1ccc(-c2cocn2)cc1`, the MIC against Caenorhabditis elegans [1] and against Caenorhabditis elegans [2] was over 100 µM each time.
Take `COc1cccc(-c2cnco2)c1`: the MIC against Caenorhabditis elegans [1] and with Caenorhabditis elegans [2] was over 100 µM each time.
For the molecule `Oc1ccc(-c2cnco2)cc1`, the MIC against Caenorhabditis elegans [1] and against Caenorhabditis elegans [2] was over 100 µM each time. Also, the pEC50 is under 4.00 in the experiment with Escherichia coli; under 4.00 with Staphylococcus aureus; under 4.00 in the experiment with Aspergillus fumigatus; under 4.00 with Candida albicans; 4.82 with Pyricularia oryzae; under 4.00 with Plasmodium falciparum. Moreover, the pEC50 is 4.29 in the experiment with HeLa, under 4.00 in [4], under 4.00 on D-amino-acid oxidase and under 4.00 on D-aspartate oxidase 3.
